Laboratory results as given in PubChem BioAssay (NCI).
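In this assay, cells in 96-well plates receive the compound at five concentrations for 48 hours. Endpoints are linearly interpolated between the surrounding concentrations. TGI is the concentration that stops growth completely.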

Columns and labels:
Assay in all cases: NCI-60 cell line screen, 48 h
UACC-62 melanoma = system: UACC-62 melanoma
OVCAR-8 ovarian = system: OVCAR-8 ovarian
UACC-257 melanoma = system: UACC-257 melanoma
LOX IMVI melanoma = system: LOX IMVI melanoma
SR leukemia = system: SR leukemia
COLO 205 colon = system: COLO 205 colon
NCI-H23 lung = system: NCI-H23 lung
HOP-62 NSCLC = system: HOP-62 NSCLC
MDA-MB-435 = system: MDA-MB-435
NCI-H226 lung = system: NCI-H226 lung
SF-268 CNS = system: SF-268 CNS
IGROV1 ovarian = system: IGROV1 ovarian
M14 melanoma = system: M14 melanoma
HT29 colon = system: HT29 colon
NCI/ADR-RES ovarian = system: NCI/ADR-RES ovarian
K-562 leukemia = system: K-562 leukemia
OVCAR-4 ovarian = system: OVCAR-4 ovarian
HCT-116 colon = system: HCT-116 colon
HOP-92 NSCLC = system: HOP-92 NSCLC
A498 renal = system: A498 renal
HCC-2998 colon = system: HCC-2998 colon
EKVX NSCLC = system: EKVX NSCLC
SNB-75 CNS = system: SNB-75 CNS
HS 578T breast = system: HS 578T breast
KM12 colon = system: KM12 colon
HCT-15 colon = system: HCT-15 colon
PC-3 prostate = system: PC-3 prostate
NCI-H460 lung = system: NCI-H460 lung
BT-549 breast = system: BT-549 breast
786-0 renal = system: 786-0 renal
RXF 393 renal = system: RXF 393 renal
RPMI-8226 leukemia = system: RPMI-8226 leukemia
OVCAR-3 ovarian = system: OVCAR-3 ovarian
SW-620 colon = system: SW-620 colon
MDA-N = system: MDA-N
CAKI-1 renal = system: CAKI-1 renal
A549 NSCLC = system: A549 NSCLC
MCF7 breast = system: MCF7 breast
MDA-MB-231 breast = system: MDA-MB-231 breast
HL-60(TB) leukemia = system: HL-60(TB) leukemia
SK-MEL-5 melanoma = system: SK-MEL-5 melanoma
SK-MEL-2 melanoma = system: SK-MEL-2 melanoma
U251 CNS = system: U251 CNS
SK-OV-3 ovarian = system: SK-OV-3 ovarian
ACHN renal = system: ACHN renal
CCRF-CEM leukemia = system: CCRF-CEM leukemia
SF-539 CNS = system: SF-539 CNS
SNB-19 CNS = system: SNB-19 CNS
DU-145 prostate = system: DU-145 prostate
UO-31 renal = system: UO-31 renal
TK-10 renal = system: TK-10 renal
T-47D breast = system: T-47D breast
SF-295 CNS = system: SF-295 CNS
SK-MEL-28 melanoma = system: SK-MEL-28 melanoma
MOLT-4 leukemia = system: MOLT-4 leukemia
SN12C renal = system: SN12C renal
MALME-3M melanoma = system: MALME-3M melanoma
OVCAR-5 ovarian = system: OVCAR-5 ovarian
NCI-H522 lung = system: NCI-H522 lung
RXF-631 renal = system: RXF-631 renal
XF 498 CNS = system: XF 498 CNS
DMS 114 small cell lung = system: DMS 114 small cell lung
KM20L2 colon = system: KM20L2 colon
DLD-1 colon = system: DLD-1 colon
LXFL 529 NSCLC = system: LXFL 529 NSCLC
HOP-18 NSCLC = system: HOP-18 NSCLC
DMS 273 small cell lung = system: DMS 273 small cell lung
M19-MEL melanoma = system: M19-MEL melanoma
SNB-78 CNS = system: SNB-78 CNS

SMILES: NS(=O)(=O)c1ccc(NC(=O)N/N=C/c2ccccc2[N+](=O)[O-])cc1
- TGI (UACC-62 melanoma): > 100 µM
- TGI (OVCAR-8 ovarian): > 100 µM
- TGI (UACC-257 melanoma): > 100 µM
- TGI (LOX IMVI melanoma): > 100 µM
- TGI (SR leukemia): > 100 µM
- TGI (COLO 205 colon): > 100 µM
- TGI (NCI-H23 lung): > 100 µM
- TGI (HOP-62 NSCLC): > 100 µM
- TGI (MDA-MB-435): 42.7 µM
- TGI (NCI-H226 lung): > 100 µM
- TGI (SF-268 CNS): > 100 µM
- TGI (IGROV1 ovarian): > 100 µM
- TGI (M14 melanoma): 85.3 µM
- TGI (HT29 colon): > 100 µM
- TGI (NCI/ADR-RES ovarian): > 100 µM
- TGI (K-562 leukemia): > 100 µM
- TGI (OVCAR-4 ovarian): > 100 µM
- TGI (HCT-116 colon): > 100 µM
- TGI (HOP-92 NSCLC): > 100 µM
- TGI (A498 renal): > 100 µM
- TGI (HCC-2998 colon): > 100 µM
- TGI (EKVX NSCLC): > 100 µM
- TGI (SNB-75 CNS): > 100 µM
- TGI (HS 578T breast): > 100 µM
- TGI (KM12 colon): > 100 µM
- TGI (HCT-15 colon): > 100 µM
- TGI (PC-3 prostate): > 100 µM
- TGI (NCI-H460 lung): > 100 µM
- TGI (BT-549 breast): > 100 µM
- TGI (786-0 renal): > 100 µM
- TGI (RXF 393 renal): > 100 µM
- TGI (RPMI-8226 leukemia): > 100 µM
- TGI (OVCAR-3 ovarian): > 100 µM
- TGI (SW-620 colon): > 100 µM
- TGI (MDA-N): 39 µM
- TGI (CAKI-1 renal): > 100 µM
- TGI (A549 NSCLC): > 100 µM
- TGI (MCF7 breast): > 100 µM
- TGI (MDA-MB-231 breast): > 100 µM
- TGI (HL-60(TB) leukemia): > 100 µM
- TGI (SK-MEL-5 melanoma): > 100 µM
- TGI (SK-MEL-2 melanoma): > 100 µM
- TGI (U251 CNS): > 100 µM
- TGI (SK-OV-3 ovarian): > 100 µM
- TGI (ACHN renal): > 100 µM
- TGI (CCRF-CEM leukemia): > 100 µM
- TGI (SF-539 CNS): > 100 µM
- TGI (SNB-19 CNS): > 100 µM
- TGI (DU-145 prostate): > 100 µM
- TGI (UO-31 renal): > 100 µM
- TGI (TK-10 renal): > 100 µM
- TGI (T-47D breast): > 100 µM
- TGI (SF-295 CNS): > 100 µM
- TGI (SK-MEL-28 melanoma): > 100 µM
- TGI (MOLT-4 leukemia): > 100 µM
- TGI (SN12C renal): > 100 µM
- TGI (MALME-3M melanoma): > 100 µM
- TGI (OVCAR-5 ovarian): > 100 µM
- TGI (NCI-H522 lung): > 100 µM

SMILES: CCOC(=O)C1(C(=O)OCC)C(C(C)(C)C)=C(C)c2ccccc21
- TGI (UACC-62 melanoma): 26 µM
- TGI (OVCAR-8 ovarian): 66.1 µM
- TGI (UACC-257 melanoma): 44.3 µM
- TGI (RXF-631 renal): 37.9 µM
- TGI (LOX IMVI melanoma): 25 µM
- TGI (XF 498 CNS): 26.3 µM
- TGI (SR leukemia): > 100 µM
- TGI (COLO 205 colon): 26.8 µM
- TGI (NCI-H23 lung): 30.4 µM
- TGI (HOP-62 NSCLC): 36.3 µM
- TGI (NCI-H226 lung): 28.5 µM
- TGI (SF-268 CNS): 39.1 µM
- TGI (IGROV1 ovarian): 36 µM
- TGI (M14 melanoma): 39.5 µM
- TGI (HT29 colon): 23.8 µM
- TGI (DMS 114 small cell lung): 26.5 µM
- TGI (K-562 leukemia): 53.5 µM
- TGI (OVCAR-4 ovarian): 45.3 µM
- TGI (HCT-116 colon): 20.2 µM
- TGI (HOP-92 NSCLC): 16.7 µM
- TGI (KM20L2 colon): 28.2 µM
- TGI (HCC-2998 colon): 31.2 µM
- TGI (DLD-1 colon): 26.4 µM
- TGI (EKVX NSCLC): 56.2 µM
- TGI (SNB-75 CNS): 61.8 µM
- TGI (KM12 colon): 25.9 µM
- TGI (HCT-15 colon): 28.7 µM
- TGI (NCI-H460 lung): 26.3 µM
- TGI (786-0 renal): 29.7 µM
- TGI (RXF 393 renal): 26.6 µM
- TGI (RPMI-8226 leukemia): 55.8 µM
- TGI (OVCAR-3 ovarian): 24.9 µM
- TGI (SW-620 colon): 28.8 µM
- TGI (LXFL 529 NSCLC): 24.5 µM
- TGI (A549 NSCLC): > 100 µM
- TGI (HL-60(TB) leukemia): 40.9 µM
- TGI (SK-MEL-5 melanoma): 21.8 µM
- TGI (SK-MEL-2 melanoma): 37.6 µM
- TGI (U251 CNS): 30.1 µM
- TGI (SK-OV-3 ovarian): 69.5 µM
- TGI (HOP-18 NSCLC): 70.2 µM
- TGI (DMS 273 small cell lung): 25.5 µM
- TGI (ACHN renal): 28 µM
- TGI (CCRF-CEM leukemia): 40.9 µM
- TGI (SF-539 CNS): 32.8 µM
- TGI (SNB-19 CNS): 45 µM
- TGI (M19-MEL melanoma): 38.8 µM
- TGI (UO-31 renal): 47.3 µM
- TGI (TK-10 renal): 72.4 µM
- TGI (SF-295 CNS): 30.2 µM
- TGI (SK-MEL-28 melanoma): 26.2 µM
- TGI (MOLT-4 leukemia): > 100 µM
- TGI (SN12C renal): 28.7 µM
- TGI (MALME-3M melanoma): 28.9 µM
- TGI (OVCAR-5 ovarian): 31.4 µM
- TGI (NCI-H522 lung): 22.2 µM

SMILES: CC(=O)OC12C(C)=C(C)C(=O)N1c1ccccc1N2C(C)=O (configuration not stated)
- TGI (UACC-62 melanoma): > 100 µM
- TGI (OVCAR-8 ovarian): > 100 µM
- TGI (UACC-257 melanoma): > 100 µM
- TGI (LOX IMVI melanoma): > 100 µM
- TGI (XF 498 CNS): > 100 µM
- TGI (SR leukemia): > 100 µM
- TGI (COLO 205 colon): > 100 µM
- TGI (NCI-H23 lung): > 100 µM
- TGI (HOP-62 NSCLC): > 100 µM
- TGI (NCI-H226 lung): > 100 µM
- TGI (SF-268 CNS): > 100 µM
- TGI (IGROV1 ovarian): > 100 µM
- TGI (M14 melanoma): > 100 µM
- TGI (HT29 colon): > 100 µM
- TGI (K-562 leukemia): > 100 µM
- TGI (OVCAR-4 ovarian): > 100 µM
- TGI (HCT-116 colon): > 100 µM
- TGI (HOP-92 NSCLC): > 100 µM
- TGI (KM20L2 colon): > 100 µM
- TGI (HCC-2998 colon): > 100 µM
- TGI (EKVX NSCLC): > 100 µM
- TGI (SNB-75 CNS): > 100 µM
- TGI (KM12 colon): > 100 µM
- TGI (HCT-15 colon): > 100 µM
- TGI (NCI-H460 lung): > 100 µM
- TGI (786-0 renal): > 100 µM
- TGI (RXF 393 renal): > 100 µM
- TGI (RPMI-8226 leukemia): > 100 µM
- TGI (OVCAR-3 ovarian): > 100 µM
- TGI (SW-620 colon): > 100 µM
- TGI (LXFL 529 NSCLC): > 100 µM
- TGI (CAKI-1 renal): > 100 µM
- TGI (A549 NSCLC): > 100 µM
- TGI (HL-60(TB) leukemia): > 100 µM
- TGI (SK-MEL-5 melanoma): > 100 µM
- TGI (SK-MEL-2 melanoma): > 100 µM
- TGI (U251 CNS): > 100 µM
- TGI (SK-OV-3 ovarian): > 100 µM
- TGI (HOP-18 NSCLC): > 100 µM
- TGI (DMS 273 small cell lung): > 100 µM
- TGI (ACHN renal): > 100 µM
- TGI (CCRF-CEM leukemia): > 100 µM
- TGI (SNB-19 CNS): > 100 µM
- TGI (M19-MEL melanoma): > 100 µM
- TGI (SNB-78 CNS): > 100 µM
- TGI (UO-31 renal): > 100 µM
- TGI (TK-10 renal): > 100 µM
- TGI (SF-295 CNS): > 100 µM
- TGI (SK-MEL-28 melanoma): > 100 µM
- TGI (MOLT-4 leukemia): > 100 µM
- TGI (OVCAR-5 ovarian): > 100 µM
- TGI (NCI-H522 lung): > 100 µM
